Laboratory results published in patent US4068070A, “α-Cyanoamine compounds and a process for producing the same” (Fuji Chemical Industry Co., Ltd., priority 1974, dated 1978).

What was measured:
Type in all cases: in vivo, mongrel adult dogs
coronary sinus out flow = test: Effects on coronary sinus out flow
Method: (§1) All experiments were made on male and female thoractomized mongrel adult dogs weighing about 10 kg. under anesthesia with pentobarbital sodium. Compounds A, D, E and F were suspended in 0.2% CMC solution, Compound B dissolved in hydrochloric acid solution (pH 6), and Compound C and active placebo being dissolved in physiological saline solution. Animals were administered the drug intravenously on brachiuma with either test compound or active placebo.
(§2) Arterial blood pressure was measured by pressure transducer (Nippon Koden MPU-0.5) connected with the cannula inserted from exposed carotid artery into aorta. Aortic blood flow was determined by means of electromagnetic flow meter (Nippon Koden MF-5) mounted at the origin of the aorta. Coronary sinus out flow and coronary sinus oxygen tension were assessed by means of electromagnetic flow meter (Nippon Koden MF-5) and P02 macro electrode (Beokmann Moder 160-C), respectively using Morawitz cannulization technique. Heart rate was measured by cardiotachometer (Nippon Koden RT-2) synchronized with systolic blood pressure of aorta.

aortic blood flow = test: Effects on aortic blood flow
Method: as §1, §2

heart rate = test: Effects on heart rate
Method: as §1, §2

[1] = system: arterial mean blood pressure; test: Effects on arterial mean blood pressure
Method: as §1, §2

[2] = system: coronary sinus oxygen tension; test: Effects on coronary sinus oxygen tension
Method: as §1, §2

## CCOC(=O)N1CCN(C(C#N)c2ccc(OC)c(OC)c2)CC1 (centres unmarked) [Compound A]
Coronary sinus out flow; 2.0 mg/kg i.v., 1 min
  Changes(%) of basal values, coronary sinus out flow: +7.6%
Coronary sinus out flow; 2.0 mg/kg i.v., 5 min
  Changes(%) of basal values, coronary sinus out flow: +5.4%
Coronary sinus out flow; 2.0 mg/kg i.v., 10 min
  Changes(%) of basal values, coronary sinus out flow: +4.7%
Coronary sinus out flow; 2.0 mg/kg i.v., 20 min
  Changes(%) of basal values, coronary sinus out flow: +4.0%
Coronary sinus out flow; 2.0 mg/kg i.v., 30 min
  Changes(%) of basal values, coronary sinus out flow: +3.5%
Coronary sinus out flow; 2.0 mg/kg i.v., imm.
  Changes(%) of basal values, coronary sinus out flow: +10.9%
Coronary sinus out flow; 6.0 mg/kg i.v., 1 min
  Changes(%) of basal values, coronary sinus out flow: +16.6%
Coronary sinus out flow; 6.0 mg/kg i.v., 5 min
  Changes(%) of basal values, coronary sinus out flow: +17.0%
Coronary sinus out flow; 6.0 mg/kg i.v., 10 min
  Changes(%) of basal values, coronary sinus out flow: +18.0%
Coronary sinus out flow; 6.0 mg/kg i.v., 20 min
  Changes(%) of basal values, coronary sinus out flow: +8.5%
Coronary sinus out flow; 6.0 mg/kg i.v., 30 min
  Changes(%) of basal values, coronary sinus out flow: +8.0%
Coronary sinus out flow; 6.0 mg/kg i.v., imm.
  Changes(%) of basal values, coronary sinus out flow: +12.0%
Coronary sinus out flow; 20.0 mg/kg i.v., 1 min
  Changes(%) of basal values, coronary sinus out flow: +34.3%
Coronary sinus out flow; 20.0 mg/kg i.v., 5 min
  Changes(%) of basal values, coronary sinus out flow: +48.3%
Coronary sinus out flow; 20.0 mg/kg i.v., 10 min
  Changes(%) of basal values, coronary sinus out flow: +47.1%
Coronary sinus out flow; 20.0 mg/kg i.v., 20 min
  Changes(%) of basal values, coronary sinus out flow: +30.0%
Coronary sinus out flow; 20.0 mg/kg i.v., 30 min
  Changes(%) of basal values, coronary sinus out flow: +11.8%
Coronary sinus out flow; 20.0 mg/kg i.v., imm.
  Changes(%) of basal values, coronary sinus out flow: +18.5%
Coronary sinus out flow; i.v., anesthetized dogs
  Effects on coronary sinus out flow (in words): a marked increasing effect on coronary sinus out flow, which was proportioned to doses thereof and of long duration
Aortic blood flow; 2.0 mg/kg i.v., 1 min
  Changes (%) of basal values, aortic blood flow: +4.3%
Aortic blood flow; 2.0 mg/kg i.v., 5 min
  Changes (%) of basal values, aortic blood flow: +3.7%
Aortic blood flow; 2.0 mg/kg i.v., 10 min
  Changes (%) of basal values, aortic blood flow: +2.3%
Aortic blood flow; 2.0 mg/kg i.v., 20 min
  Changes (%) of basal values, aortic blood flow: +1.0%
Aortic blood flow; 2.0 mg/kg i.v., 30 min
  Changes (%) of basal values, aortic blood flow: +1.0%
Aortic blood flow; 2.0 mg/kg i.v., imm.
  Changes (%) of basal values, aortic blood flow: +0.5%
Aortic blood flow; 6.0 mg/kg i.v., 1 min
  Changes (%) of basal values, aortic blood flow: +5.8%
Aortic blood flow; 6.0 mg/kg i.v., 5 min
  Changes (%) of basal values, aortic blood flow: +3.7%
Aortic blood flow; 6.0 mg/kg i.v., 10 min
  Changes (%) of basal values, aortic blood flow: +0.1%
Aortic blood flow; 6.0 mg/kg i.v., 20 min
  Changes (%) of basal values, aortic blood flow: -0.2%
Aortic blood flow; 6.0 mg/kg i.v., 30 min
  Changes (%) of basal values, aortic blood flow: +0.2%
Aortic blood flow; 6.0 mg/kg i.v., imm.
  Changes (%) of basal values, aortic blood flow: +4.3%
Aortic blood flow; 20.0 mg/kg i.v., 1 min
  Changes (%) of basal values, aortic blood flow: +7.3%
Aortic blood flow; 20.0 mg/kg i.v., 5 min
  Changes (%) of basal values, aortic blood flow: +10.2%
Aortic blood flow; 20.0 mg/kg i.v., 10 min
  Changes (%) of basal values, aortic blood flow: +8.0%
Aortic blood flow; 20.0 mg/kg i.v., 20 min
  Changes (%) of basal values, aortic blood flow: +3.3%
Aortic blood flow; 20.0 mg/kg i.v., 30 min
  Changes (%) of basal values, aortic blood flow: +1.0%
Aortic blood flow; 20.0 mg/kg i.v., imm.
  Changes (%) of basal values, aortic blood flow: +6.1%
Aortic blood flow; during the course of observation period, i.v.
  increased aortic blood flow: 2-8%
Heart rate; 2.0 mg/kg i.v., 1 min
  Changes(%) of basal values, heart rate: -4.7%
Heart rate; 2.0 mg/kg i.v., 5 min
  Changes(%) of basal values, heart rate: -0.6%
Heart rate; 2.0 mg/kg i.v., 10 min
  Changes(%) of basal values, heart rate: -0.4%
Heart rate; 2.0 mg/kg i.v., 20 min
  Changes(%) of basal values, heart rate: 0%
Heart rate; 2.0 mg/kg i.v., 30 min
  Changes(%) of basal values, heart rate: 0%
Heart rate; 2.0 mg/kg i.v., imm.
  Changes(%) of basal values, heart rate: -5.2%
Heart rate; 6.0 mg/kg i.v., 1 min
  Changes(%) of basal values, heart rate: -3.9%
Heart rate; 6.0 mg/kg i.v., 5 min
  Changes(%) of basal values, heart rate: -2.3%
Heart rate; 6.0 mg/kg i.v., 10 min
  Changes(%) of basal values, heart rate: -0.9%
Heart rate; 6.0 mg/kg i.v., 20 min
  Changes(%) of basal values, heart rate: +1.0%
Heart rate; 6.0 mg/kg i.v., 30 min
  Changes(%) of basal values, heart rate: +1.0%
Heart rate; 6.0 mg/kg i.v., imm.
  Changes(%) of basal values, heart rate: -5.0%
Heart rate; 20.0 mg/kg i.v., 1 min
  Changes(%) of basal values, heart rate: +1.5%
Heart rate; 20.0 mg/kg i.v., 5 min
  Changes(%) of basal values, heart rate: 0%
Heart rate; 20.0 mg/kg i.v., 10 min
  Changes(%) of basal values, heart rate: -1.8%
Heart rate; 20.0 mg/kg i.v., 20 min
  Changes(%) of basal values, heart rate: -6.0%
Heart rate; 20.0 mg/kg i.v., 30 min
  Changes(%) of basal values, heart rate: -6.7%
Heart rate; 20.0 mg/kg i.v., imm.
  Changes(%) of basal values, heart rate: -7.0%
Heart rate; i.v., anesthetized dogs
  Effects on heart rate (in words): a slight negative chronotropic effect
[1]; 2.0 mg/kg i.v., 1 min
  Changes (%) of basal values, arterial mean blood pressure: -1.5%
[1]; 2.0 mg/kg i.v., 5 min
  Changes (%) of basal values, arterial mean blood pressure: -2.6%
[1]; 2.0 mg/kg i.v., 10 min
  Changes (%) of basal values, arterial mean blood pressure: -4.2%
[1]; 2.0 mg/kg i.v., 20 min
  Changes (%) of basal values, arterial mean blood pressure: -3.8%
[1]; 2.0 mg/kg i.v., 30 min
  Changes (%) of basal values, arterial mean blood pressure: -4.5%
[1]; 2.0 mg/kg i.v., imm.
  Changes (%) of basal values, arterial mean blood pressure: -4.0%
[1]; 6.0 mg/kg i.v., 1 min
  Changes (%) of basal values, arterial mean blood pressure: -3.4%
[1]; 6.0 mg/kg i.v., 5 min
  Changes (%) of basal values, arterial mean blood pressure: -5.2%
[1]; 6.0 mg/kg i.v., 10 min
  Changes (%) of basal values, arterial mean blood pressure: -6.0%
[1]; 6.0 mg/kg i.v., 20 min
  Changes (%) of basal values, arterial mean blood pressure: -5.2%
[1]; 6.0 mg/kg i.v., 30 min
  Changes (%) of basal values, arterial mean blood pressure: -3.0%
[1]; 6.0 mg/kg i.v., imm.
  Changes (%) of basal values, arterial mean blood pressure: -4.2%
[1]; 20.0 mg/kg i.v., 1 min
  Changes (%) of basal values, arterial mean blood pressure: -16.9%
[1]; 20.0 mg/kg i.v., 5 min
  Changes (%) of basal values, arterial mean blood pressure: -16.9%
[1]; 20.0 mg/kg i.v., 10 min
  Changes (%) of basal values, arterial mean blood pressure: -16.0%
[1]; 20.0 mg/kg i.v., 20 min
  Changes (%) of basal values, arterial mean blood pressure: -17.0%
[1]; 20.0 mg/kg i.v., 30 min
  Changes (%) of basal values, arterial mean blood pressure: -14.9%
[1]; 20.0 mg/kg i.v., imm.
  Changes (%) of basal values, arterial mean blood pressure: -14.5%
[1]; i.v., anesthetized dogs
  Effects on arterial mean blood pressure (in words): hypotensive effects being proportioned to their doses which were of long duration
[2]; 2.0 mg/kg i.v., 1 min
  Changes(%) of basal values, coronary sinus oxygen tension: +15.2%
[2]; 2.0 mg/kg i.v., 5 min
  Changes(%) of basal values, coronary sinus oxygen tension: +13.8%
[2]; 2.0 mg/kg i.v., 10 min
  Changes(%) of basal values, coronary sinus oxygen tension: +12.5%
[2]; 2.0 mg/kg i.v., 20 min
  Changes(%) of basal values, coronary sinus oxygen tension: +12.0%
[2]; 2.0 mg/kg i.v., 30 min
  Changes(%) of basal values, coronary sinus oxygen tension: +12.0%
[2]; 2.0 mg/kg i.v., imm.
  Changes(%) of basal values, coronary sinus oxygen tension: +11.2%
[2]; 6.0 mg/kg i.v., 1 min
  Changes(%) of basal values, coronary sinus oxygen tension: +27.5%
[2]; 6.0 mg/kg i.v., 5 min
  Changes(%) of basal values, coronary sinus oxygen tension: +27.0%
[2]; 6.0 mg/kg i.v., 10 min
  Changes(%) of basal values, coronary sinus oxygen tension: +30.0%
[2]; 6.0 mg/kg i.v., 20 min
  Changes(%) of basal values, coronary sinus oxygen tension: +19.6%
[2]; 6.0 mg/kg i.v., 30 min
  Changes(%) of basal values, coronary sinus oxygen tension: +13.5%
[2]; 6.0 mg/kg i.v., imm.
  Changes(%) of basal values, coronary sinus oxygen tension: +18.0%
[2]; 20.0 mg/kg i.v., 1 min
  Changes(%) of basal values, coronary sinus oxygen tension: +47.2%
[2]; 20.0 mg/kg i.v., 5 min
  Changes(%) of basal values, coronary sinus oxygen tension: +39.0%
[2]; 20.0 mg/kg i.v., 10 min
  Changes(%) of basal values, coronary sinus oxygen tension: +91.7%
[2]; 20.0 mg/kg i.v., 20 min
  Changes(%) of basal values, coronary sinus oxygen tension: +72.5%
[2]; 20.0 mg/kg i.v., 30 min
  Changes(%) of basal values, coronary sinus oxygen tension: +56.9%
[2]; 20.0 mg/kg i.v., imm.
  Changes(%) of basal values, coronary sinus oxygen tension: +31.6%
[2]; i.v., anesthetized dogs
  Effects on coronary sinus oxygen tension (in words): a significant increase in coronary sinus oxygen tension, effect of which was of long duration
